Reference: US20120045483A1, “Mannitol and/or Proline for Prevention and Treatment of Ageing Related Symptoms” (ERASMUS MC, priority 2006, published 2012)
Read-outs that look alike come from different tables or passages of the source.

Assays:
[1] = tested on: Csb^G744ter/G744ter/Xpa^null/null double mutant mice; format: in vivo, mouse; details: for Clearance from the tissues and bloodstream of treated subjects: higher single dose administrations; for Effectiveness of higher single dose administrations: versus low constant source; for Positive results as with mannitol and/or proline: tested under similar conditions
From the text: Additionally these animals have an enhanced photoreceptor cell loss. The accumulation of oxidative DNA damage before and immediately after birth presumably negatively influences transcription and causes the premature ageing phenotype.
In order to investigate the effect of radical scavengers on the CSB/XPA double knockout mice, the effect of several compounds and compositions was monitored by the frequency of CSB/XPA DKO mice (closer to the expected mendelian frequency of 25%), an extended life-span (longer than the average three weeks for untreated DKO mice) and a delay or to some extent inhibit the premature ageing phenotype.
To obtain CSB/XPA double mutant mice the following crossing were done:
From these crossings CSB^−/−XPA^−/− mice were born with a frequency of 9%, whereas the expected Mendelian frequency is 25%.
The offspring were genotyped following normal procedures (tail clipping and genomic DNA analysis by Southern blot analysis or PCR amplification) and monitored for life span.

[2] = 0.2M L-Proline via drinking water, one week, wt animals
Procedure: (§1) The LLOQ (Lowest Limit of Quantitation) for proline is typically 0.250 μg/ml. […] The sample is further precipitated using acetonitrile and centrifuged. An aliquot of the supernatant is evaporated to dryness under a steam of nitrogen at 60° C., Milli-Q water is added and the preparation is vortexed. Methanol is subsequently added to the preparation and vortexed. Usually Milli-Q water and methanol are added in a ratio of 1/5. The preparation is centrifuged for 2 minutes at a speed of 4000 g or more. The obtained preparation is injected. The apparatus used for LC-MS/MS is API4000 LC-MS/MS.
L-Proline was also measured in the blood and urine of four wt animals that received 0.2M L-Proline via their drinking water. As a control, four wt animals received just drinking water. The duration of this treatment was one week, after which one blood sample and one urine sample was taken.

[3] = Transmission of D-Mannitol and L-Proline from mother to pup, osmotic pump in pregnant wild type mice, LC-MS/MS levels; details: osmotic pump 200 μl, 0.3M alone or 0.2M each combined, 28 days, pregnant wild type mice (C57B1/6)
Procedure: The sample is further precipitated using acetonitrile and centrifuged.
as §1

[4] = In vitro AOC (anti-oxidant capacity); details: effective concentrations between 0.1 μg/ml and 10 μg/ml as measured in the serum
From the text: The compositions of the invention may be of any type. […] Mannitol and proline in particular have well documented anti-oxidant properties.

[5] = Serum mannitol concentration in CSB mice with osmotic pump; format: in vivo; details: mouse, sc, subcutaneous osmotic pump (200 μl), read-out: Serum [mannitol] after 3 weeks
Procedure: The sample is further precipitated using acetonitrile and centrifuged. […] The organic layer is isolated and evaporated to dryness. The residue is dissolved in injection solvent and injected.
21 CSB animals, age 6 months, received an osmotic pump, 7×30 mm (volume 200 μl), subcutaneously implanted under the skin on the back, for continuous release of Phosphate Buffered Saline (control), 0.3M D-Mannitol or 0.03M D-Mannitol dissolved in Phosphate Buffered Saline, 7 animals per compound. To determine the actual D-Mannitol concentration in the blood of these animals, blood samples were taken every 7 days after the implantation of the osmotic pump. After three weeks, eyes were isolated from these animals and TUNEL staining was performed to determine the effect of D-Mannitol on diminishing the age-related photoreceptor-loss in CSB animals, Blood and urine samples were taken for measurements of D-mannitol levels and for determination of biomarkers. In a second experiment, the D-Mannitol treatment via osmotic pumps were repeated, but here on 8 week-old CSB mice were γ-irradiated, in order to see if D-mannitol can reduce the γ-induced photoreceptor-loss observed in CSB mice.

[6] = tested on: CSB mice; test: γ-irradiation induced photoreceptor loss in CSB mice, TUNEL staining of the retina; format: in vivo, mouse; details: osmotic pump, 8 week-old CSB mice, γ-irradiated
Procedure: CSB mice have accelerated aging-related photoreceptor loss. […] The photoreceptor loss can also be induced in young adult CSB mice (8-10 weeks) with γ-irradiation (induces a.o. oxidative DNA damage). Since aging-related photoreceptor-loss is at least in part caused by unrepaired oxidative DNA damage, we are able to intervene with anti-oxidant or radical scavenger molecules, in particular with mannitol and/or proline. 21 CSB animals, age 6 months, received an osmotic pump, 7×30 mm (volume 200 μl), subcutaneously implanted under the skin on the back, for continuous release of Phosphate Buffered Saline (control), 0.3M D-Mannitol or 0.03M D-Mannitol dissolved in Phosphate Buffered Saline, 7 animals per compound. To determine the actual D-Mannitol concentration in the blood of these animals, blood samples were taken every 7 days after the implantation of the osmotic pump. After three weeks, eyes were isolated from these animals and TUNEL staining was performed to determine the effect of D-Mannitol on diminishing the age-related photoreceptor-loss in CSB animals, Blood and urine samples were taken for measurements of D-mannitol levels and for determination of biomarkers. […] For quantification, the number of TUNEL-positive cells in the inner nuclear layer (INL) and outer nuclear layer (ONL) were counted in 6 whole sections per mouse. […]

[7] = tested on: CSB mice; test: Age-related photoreceptor loss in CSB mice, TUNEL staining of the retina, without radiation; format: in vivo, mouse; details: for Apoptotic index without radiation (number of TUNEL-positive cells): osmotic pump, 3 weeks, CSB mice age 6 months
Procedure: CSB mice have accelerated aging-related photoreceptor loss. […] The photoreceptor loss can also be induced in young adult CSB mice (8-10 weeks) with γ-irradiation (induces a.o. oxidative DNA damage). Since aging-related photoreceptor-loss is at least in part caused by unrepaired oxidative DNA damage, we are able to intervene with anti-oxidant or radical scavenger molecules, in particular with mannitol and/or proline. 21 CSB animals, age 6 months, received an osmotic pump, 7×30 mm (volume 200 μl), subcutaneously implanted under the skin on the back, for continuous release of Phosphate Buffered Saline (control), 0.3M D-Mannitol or 0.03M D-Mannitol dissolved in Phosphate Buffered Saline, 7 animals per compound. To determine the actual D-Mannitol concentration in the blood of these animals, blood samples were taken every 7 days after the implantation of the osmotic pump. After three weeks, eyes were isolated from these animals and TUNEL staining was performed to determine the effect of D-Mannitol on diminishing the age-related photoreceptor-loss in CSB animals, Blood and urine samples were taken for measurements of D-mannitol levels and for determination of biomarkers. In a second experiment, the D-Mannitol treatment via osmotic pumps were repeated, but here on 8 week-old CSB mice were γ-irradiated, in order to see if D-mannitol can reduce the γ-induced photoreceptor-loss observed in CSB mice. For retinal evaluation by TUNEL staining, eyes were marked nasally with Alcian blue (5% Alcian blue in 96% ethanol), enucleated, fixed in 4% paraformaldehyde in 0.1M phosphate buffer, washed in PBS and embedded in paraffin. Horizontal sections (5 μm thick) of the retina were cut and sections in the middle of the retina were selected by Alcian blue marking and proximity of the optic nerve. […] For quantification, the number of TUNEL-positive cells in the inner nuclear layer (INL) and outer nuclear layer (ONL) were counted in 6 whole sections per mouse.

[8] = 5% D-mannitol in PBS, osmotic pump in pregnant females

Compound: O=C(O)[C@@H]1CCCN1 [proline, L-Proline]
- Clearance from the tissues and bloodstream of treated subjects [1]: rapidly cleared
- Effectiveness of higher single dose administrations [1]: less or even ineffective
- Frequency of survival of DKO pups after birth ([1]; proline treatment): equally effective in increasing the frequency of survival
- L-Proline levels in the blood [2]: no elevated levels
- L-Proline levels in the urine [2]: High levels
- Elevated levels in blood of mothers and pups, in milk or in whole embryo's [3]: not detected
- AOC (anti-oxidant capacity) in vitro [4]: no or negligible

Compound: O=C1O[C@H]([C@@H](O)CO)C(O)=C1O [vitamin C]
- Positive results as with mannitol and/or proline [1]: did not yield the positive results

Compound: vitamin E
- Positive results as with mannitol and/or proline [1]: did not yield the positive results

Compound: OC[C@@H](O)[C@@H](O)[C@H](O)[C@H](O)CO [Mannitol, hexane-1,2,3,4,5,6-hexyl]
- Frequency of birth and survival after birth of XPA/CSB double KO mice ([1]; 2% D-Mannitol administered to drinking water): Comparable results
- Frequency of birth of XPA/CSB double KO mice [1, 8]: increase in frequency of birth
- Survival after birth (life span) of XPA/CSB double KO mice [1, 8]: increase in survival after birth
- Clearance from the tissues and bloodstream of treated subjects [1]: rapidly cleared
- Effectiveness of higher single dose administrations [1]: less or even ineffective
- concentration at 3 weeks ([5]; 0.03 M (200 μl osmotic pump, continuous release), 0.03M D-Mannitol in PBS): 0.1 ± 0.03 µg/mL
- concentration at 3 weeks ([5]; 0.3 M (200 μl osmotic pump, continuous release), 0.3M D-Mannitol in PBS): 0.65 ± 0.18 µg/mL
- Apoptotic index after radiation (number of TUNEL-positive cells) ([6]; 0.03M D-Mannitol): 29.5 ± 6.0
- Apoptotic index after radiation (number of TUNEL-positive cells) ([6]; 0.3M D-Mannitol): 28.9 ± 11.3
- Apoptotic index without radiation (number of TUNEL-positive cells) ([7]; 0.03M D-Mannitol): 24.1 ± 6.8
- Apoptotic index without radiation (number of TUNEL-positive cells) ([7]; 0.3M D-Mannitol): 24.8 ± 6.0
- Change of the apoptotic index (photoreceptor loss) ([7]; endogenous or exogenous (radiation induced) oxidative stress, CSB mice): significant decrease
- AOC (anti-oxidant capacity) in vitro [4]: no or negligible
